# From ChEMBL document CHEMBL1201862, “PubChem BioAssay data set” (2004)
#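 Exposure lasted 48 hours, with cells grown in 96-well plates and compounds tested at five concentrations. Here, GI50 denotes the concentration required for 50% inhibition of growth.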 Activity calls are given as the source filed them. Rule as the data show it: active = GI50 up to about 1.1 µM and inactive = higher.
# Assays:
# Test in all cases: inhibition of tumour cell growth, NCI panel, 48 h
# UACC-62 = system: UACC-62
# Malme-3M = system: Malme-3M
# OVCAR-3 = system: OVCAR-3
# ACHN = system: ACHN
# HOP-62 = system: HOP-62
# CAKI-1 = system: CAKI-1
# OVCAR-8 = system: OVCAR-8
# SK-MEL-28 = system: SK-MEL-28
# SK-MEL-5 = system: SK-MEL-5
# SK-OV-3 = system: SK-OV-3
# HCT-116 = system: HCT-116
# OVCAR-5 = system: OVCAR-5
# SN12C = system: SN12C
# SF-268 = system: SF-268
# DLD-1 = system: DLD-1
# HT-29 = system: HT-29
# KM12 = system: KM12
# EKVX = system: EKVX
# K562 = system: K562
# HCT-15 = system: HCT-15
SMILES,GI50 (UACC-62),GI50 (Malme-3M),GI50 (OVCAR-3),GI50 (ACHN),GI50 (HOP-62),GI50 (CAKI-1),GI50 (OVCAR-8),GI50 (SK-MEL-28),GI50 (SK-MEL-5),GI50 (SK-OV-3),GI50 (HCT-116),GI50 (OVCAR-5),GI50 (SN12C),GI50 (SF-268),GI50 (DLD-1),GI50 (HT-29),GI50 (KM12),GI50 (EKVX),GI50 (K562),GI50 (HCT-15)
O=C(/C=C/c1cc(Cl)cc(Cl)c1O)c1cccc(O)c1,29.8 µM (inactive),28.6 µM (inactive),28.4 µM (inactive),> 100 µM (inactive),74 µM (inactive),> 100 µM (inactive),32.1 µM (inactive),43.5 µM (inactive),45.6 µM (inactive),31.8 µM (inactive),42.4 µM (inactive),15 µM (inactive),13.7 µM (inactive),40.2 µM (inactive),38.8 µM (inactive),93.8 µM (inactive),54 µM (inactive),36.3 µM (inactive),33.4 µM (inactive),41.5 µM
c1ccc(SC23C4C5C6C4C2C6C53)nc1 (stereo not given),> 100 µM (inactive),> 100 µM (inactive),> 100 µM (inactive),> 100 µM (inactive),> 100 µM (inactive),> 100 µM (inactive),> 100 µM (inactive),> 100 µM (inactive),> 100 µM (inactive),> 100 µM (inactive),> 100 µM (inactive),> 100 µM (inactive),> 100 µM (inactive),> 31.6 µM (inactive),> 100 µM (inactive),> 100 µM (inactive),> 100 µM (inactive),> 100 µM (inactive),> 100 µM (inactive),> 100 µM
O=C1Nc2ccccc2C12CCNC2Cc1ccccc1 (stereo not given),> 100 µM (inactive),> 100 µM (inactive),> 100 µM (inactive),> 100 µM (inactive),> 100 µM (inactive),> 100 µM (inactive),> 100 µM (inactive),> 100 µM (inactive),> 100 µM (inactive),> 100 µM (inactive),> 100 µM (inactive),> 100 µM (inactive),,> 100 µM (inactive),> 100 µM (inactive),> 100 µM (inactive),> 100 µM (inactive),> 100 µM (inactive),> 100 µM (inactive),> 100 µM
COc1ccc(-c2nc3c(nc2-c2ccc(OC)cc2)C(N)=NS(=O)(=O)N3)cc1,> 100 µM (inactive),> 100 µM (inactive),> 100 µM (inactive),> 100 µM (inactive),> 100 µM (inactive),> 100 µM (inactive),> 100 µM (inactive),> 100 µM (inactive),> 100 µM (inactive),> 100 µM (inactive),,> 100 µM (inactive),> 100 µM (inactive),> 100 µM (inactive),> 100 µM (inactive),> 100 µM (inactive),> 100 µM (inactive),> 100 µM (inactive),> 100 µM (inactive),> 100 µM
CCC/C(=N\NC(=S)N1CCN(c2ccccn2)CC1)c1ccccn1,0.0036 µM (active),0.0205 µM (active),0.0325 µM (active),0.0207 µM (active),0.141 µM (active),0.179 µM (active),0.00314 µM (active),0.367 µM (active),0.0108 µM (active),0.437 µM (active),0.00122 µM (active),0.61 µM (active),,0.236 µM (active),< 0.001 µM (active),0.00137 µM (active),0.0146 µM (active),0.00729 µM (active),0.00117 µM (active),0.00528 µM
COc1ccc(/C(=N\NC(=N)N)C(c2ccc(OC)cc2)C2OC(=O)c3ccccc32)cc1 (stereo not given),> 100 µM (inactive),> 100 µM (inactive),> 100 µM (inactive),> 100 µM (inactive),> 100 µM (inactive),> 100 µM (inactive),> 100 µM (inactive),> 100 µM (inactive),> 100 µM (inactive),> 100 µM (inactive),> 100 µM (inactive),> 100 µM (inactive),> 100 µM (inactive),> 100 µM (inactive),> 100 µM (inactive),> 100 µM (inactive),> 100 µM (inactive),,> 100 µM (inactive),> 100 µM
COc1cc(C=O)c(-c2cc3c(cc2C2(C)OCCS2)OCO3)c(OC)c1OC (stereo not given),12.6 µM (inactive),12 µM (inactive),5.14 µM (inactive),18.5 µM (inactive),15.5 µM (inactive),11.6 µM (inactive),19.1 µM (inactive),4.4 µM (inactive),9.14 µM (inactive),13.6 µM (inactive),8 µM (inactive),50 µM (inactive),13.5 µM (inactive),36.5 µM (inactive),16.7 µM (inactive),6.68 µM (inactive),9.53 µM (inactive),19.7 µM (inactive),8.83 µM (inactive),8.22 µM
COC(=O)/C=C/c1cc(OC)c(OC)c(OC)c1,78.3 µM (inactive),> 100 µM (inactive),> 100 µM (inactive),> 100 µM (inactive),> 100 µM (inactive),> 100 µM (inactive),> 100 µM (inactive),> 100 µM (inactive),> 100 µM (inactive),> 100 µM (inactive),> 100 µM (inactive),,> 100 µM (inactive),> 100 µM (inactive),> 100 µM (inactive),> 100 µM (inactive),> 100 µM (inactive),> 100 µM (inactive),,> 100 µM
O=C(COc1ccc2c(=O)cc(-c3ccc(Cl)cc3)oc2c1)N1CCN(c2ccccc2)CC1,> 100 µM (inactive),> 100 µM (inactive),> 100 µM (inactive),> 100 µM (inactive),> 100 µM (inactive),> 100 µM (inactive),> 100 µM (inactive),> 100 µM (inactive),> 100 µM (inactive),> 100 µM (inactive),55.1 µM (inactive),> 100 µM (inactive),65.9 µM (inactive),> 100 µM (inactive),> 100 µM (inactive),> 100 µM (inactive),89.9 µM (inactive),> 100 µM (inactive),4.56 µM (inactive),> 100 µM
Clc1cccc(-c2nnc(-c3nn(-c4ccccc4)c4nc5ccccc5nc34)o2)c1,> 100 µM (inactive),> 100 µM (inactive),> 100 µM (inactive),> 100 µM (inactive),> 100 µM (inactive),> 100 µM (inactive),> 100 µM (inactive),> 100 µM (inactive),77.4 µM (inactive),> 100 µM (inactive),> 100 µM (inactive),> 100 µM (inactive),> 100 µM (inactive),> 100 µM (inactive),> 100 µM (inactive),> 100 µM (inactive),> 100 µM (inactive),> 100 µM (inactive),> 100 µM (inactive),> 100 µM
Nc1nc2ncn(CC(O)CO)c2c(=S)[nH]1 (stereo not given),> 100 µM (inactive),> 100 µM (inactive),> 100 µM (inactive),> 100 µM (inactive),> 100 µM (inactive),> 100 µM (inactive),> 100 µM (inactive),> 100 µM (inactive),> 100 µM (inactive),> 100 µM (inactive),> 100 µM (inactive),> 100 µM (inactive),> 100 µM (inactive),> 100 µM (inactive),> 100 µM (inactive),> 100 µM (inactive),> 100 µM (inactive),> 100 µM (inactive),> 100 µM (inactive),> 100 µM
Cc1ccc(C2(O)CC(c3ccc([N+](=O)[O-])o3)=NN2C(=O)COc2ccc(Cl)cc2)cc1 (stereo not given),3.55 µM (inactive),11.6 µM (inactive),5.35 µM (inactive),4.99 µM (inactive),12.3 µM (inactive),12.6 µM (inactive),4.63 µM (inactive),9.77 µM (inactive),2.32 µM (inactive),15.3 µM (inactive),3.85 µM (inactive),37.2 µM (inactive),5.18 µM (inactive),5.85 µM (inactive),3.23 µM (inactive),5.47 µM (inactive),4.66 µM (inactive),6.3 µM (inactive),4.07 µM (inactive),3.1 µM
O=C(/C=C/c1ccc(OCCCCCCCCCCOc2ccc(/C=C/C(=O)c3ccc(Cl)cc3)cc2)cc1)c1ccc(Cl)cc1,> 100 µM (inactive),> 100 µM (inactive),> 100 µM (inactive),> 100 µM (inactive),> 100 µM (inactive),> 100 µM (inactive),> 100 µM (inactive),> 100 µM (inactive),> 100 µM (inactive),> 100 µM (inactive),,> 100 µM (inactive),> 100 µM (inactive),> 100 µM (inactive),> 100 µM (inactive),> 100 µM (inactive),> 100 µM (inactive),> 100 µM (inactive),> 100 µM (inactive),> 100 µM
O=C1c2ccccc2C(=O)c2nc(-c3ccccc3)c(-c3ccccc3)nc21,2.74 µM (inactive),1.22 µM (inactive),2.58 µM (inactive),> 100 µM (inactive),33 µM (inactive),> 100 µM (inactive),> 100 µM (inactive),> 74.1 µM (inactive),1.49 µM (inactive),> 100 µM (inactive),> 100 µM (inactive),> 100 µM (inactive),,> 100 µM (inactive),> 100 µM (inactive),21.7 µM (inactive),> 100 µM (inactive),> 100 µM (inactive),> 100 µM (inactive),> 88.1 µM
CN(C)C(=S)Nc1nnc(Nc2ccccc2)s1,,> 100 µM (inactive),> 100 µM (inactive),> 100 µM (inactive),> 100 µM (inactive),> 100 µM (inactive),> 100 µM (inactive),> 100 µM (inactive),38.7 µM (inactive),> 100 µM (inactive),> 100 µM (inactive),> 100 µM (inactive),> 100 µM (inactive),,> 100 µM (inactive),> 100 µM (inactive),> 10 µM (inactive),> 100 µM (inactive),> 100 µM (inactive),> 100 µM
